Results on 54 compounds are retold here after patent US9029546B2, “Pyrazolopyridine kinase inhibitors” (Vertex Pharmaceuticals Incorporated, priority 2008, dated 2015).

Test [1] deals with PKC theta kinase (Homo sapiens, UniProt Q04759). Kind of test: PKC theta coupled-enzyme kinase assay (NADH consumption). It is filed as biochemical. The following applies: 240 μM ATP, 30° C. How it is done: (§1) An assay buffer solution was prepared which consisted of 100 mM HEPES (pH 7.5), 10 mM MgCl2, 25 mM NaCl, 0.1 mM EDTA and 0.01% Brij. An enzyme buffer containing reagents to final assay concentrations of 0.00001% Triton X-100, 200 μg/mL Phosphatidylserine, 20 μg/mL Diacylglycerol, 360 μM NADH, 3 mM phosphoenolpyruvate, 70 μg/mL pyruvate kinase, 24 μg/mL lactate dehydrogenase, 2 mM DTT, 100 μM substrate peptide (ERMRPRKRQGSVRRRV (SEQ ID NO: 1)) and 18 nM PKC theta kinase was prepared in assay buffer. To 60 μL of this enzyme buffer, in a 384 well plate, was added 2 μL of VRT stock solution in DMSO. The mixture was allowed to equilibrate for 10 mins at 30° C. The enzyme reaction was initiated by the addition of 5 μL stock ATP solution prepared in assay buffer to a final assay concentration of 240 μM. Initial rate data was determined from the rate of change of absorbance at 340 nm (corresponding to stoichiometric consumption of NADH) using a Molecular Devices Spectramax plate reader (Sunnyvale, Calif.) over 15 mins at 30° C. For each Ki determination 12 data points covering the VRT concentration range of 0-20 μM were obtained in duplicate (DMSO stocks were prepared from an initial 10 mM VRT stock with subsequent 1:2 serial dilutions). Ki values were calculated from initial rate data by non-linear regression using the Prism software package (Prism 4.0a, Graphpad Software, San Diego, Calif.).
Sequence of PKC theta kinase (Q04759 whole entry): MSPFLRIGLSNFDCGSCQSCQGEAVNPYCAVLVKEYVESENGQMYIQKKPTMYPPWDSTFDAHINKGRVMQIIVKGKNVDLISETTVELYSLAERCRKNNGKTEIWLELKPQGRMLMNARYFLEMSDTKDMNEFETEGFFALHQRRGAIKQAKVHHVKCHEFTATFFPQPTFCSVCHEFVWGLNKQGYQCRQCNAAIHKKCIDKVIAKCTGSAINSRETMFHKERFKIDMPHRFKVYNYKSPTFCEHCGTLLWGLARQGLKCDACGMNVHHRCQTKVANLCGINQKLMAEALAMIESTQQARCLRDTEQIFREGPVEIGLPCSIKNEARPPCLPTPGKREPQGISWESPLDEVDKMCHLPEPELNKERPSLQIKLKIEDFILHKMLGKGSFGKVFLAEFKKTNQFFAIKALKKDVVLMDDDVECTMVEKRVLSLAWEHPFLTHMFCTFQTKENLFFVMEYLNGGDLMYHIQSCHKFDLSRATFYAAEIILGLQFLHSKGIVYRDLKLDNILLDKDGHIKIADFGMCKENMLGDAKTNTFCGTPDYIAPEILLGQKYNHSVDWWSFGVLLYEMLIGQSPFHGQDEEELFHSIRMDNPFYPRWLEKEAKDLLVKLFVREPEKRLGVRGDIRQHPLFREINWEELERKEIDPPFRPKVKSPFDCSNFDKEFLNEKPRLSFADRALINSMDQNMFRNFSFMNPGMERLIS

Test [2] addresses PKC Delta (Homo sapiens, UniProt Q05655). Kind of test: PKC delta coupled-enzyme kinase assay (NADH consumption). The following applies: 240 μM ATP, 30° C. It is filed as biochemical. Here is the method: [The source words this procedure for another target and reports this target under the same test.] as §1

Sequence of PKC Delta (Q05655 whole entry): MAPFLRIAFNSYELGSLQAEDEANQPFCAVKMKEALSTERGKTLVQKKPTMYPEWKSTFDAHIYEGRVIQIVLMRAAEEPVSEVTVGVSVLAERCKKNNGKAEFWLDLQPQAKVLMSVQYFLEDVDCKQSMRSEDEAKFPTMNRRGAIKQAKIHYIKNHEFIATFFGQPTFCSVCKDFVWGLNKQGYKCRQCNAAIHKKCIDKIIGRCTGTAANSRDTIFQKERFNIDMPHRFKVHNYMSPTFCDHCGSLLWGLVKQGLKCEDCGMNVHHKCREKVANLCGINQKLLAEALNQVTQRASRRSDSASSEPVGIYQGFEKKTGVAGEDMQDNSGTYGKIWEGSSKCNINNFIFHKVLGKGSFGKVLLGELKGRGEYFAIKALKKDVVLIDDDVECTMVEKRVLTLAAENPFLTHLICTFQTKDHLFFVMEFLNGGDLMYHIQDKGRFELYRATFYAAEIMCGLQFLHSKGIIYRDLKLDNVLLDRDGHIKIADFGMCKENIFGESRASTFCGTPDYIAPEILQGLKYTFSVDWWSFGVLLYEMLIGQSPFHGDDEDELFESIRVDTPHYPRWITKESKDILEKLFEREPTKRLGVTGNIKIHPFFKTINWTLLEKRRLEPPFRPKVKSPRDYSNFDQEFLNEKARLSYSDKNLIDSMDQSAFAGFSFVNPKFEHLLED

For orientation: Ki means a measure of affinity in units of concentration, obtained from inhibition or displacement. Higher therefore signals weaker binding. With `FC(F)(F)c1ccc(N[C@@H]2CCc3ccccc32)nc1-c1n[nH]c2ncccc12` [Compound 85], the inhibition constant Ki in test [1] and in test [2] was greater than 0.7 µM in each case.

As for `O[C@H](CNc1ccc(C(F)(F)F)c(-c2n[nH]c3ncccc23)n1)c1ccccc1` [Compound 19], the Ki in test [1] and in test [2] was less than 0.5 µM in each case.

For `O[C@H]1CC[C@H](Nc2ccc(C(F)(F)F)c(-c3n[nH]c4ncccc34)n2)CC1` [Compound 81], the Ki in test [1] and in test [2] was greater than 0.7 µM each time.

Turning to `NC(COc1ccc(C(F)(F)F)c(-c2n[nH]c3ncccc23)n1)c1ccccc1` (stereo not drawn) [Compound 37], the Ki in test [1] and in test [2] was less than 0.5 µM in each case.

With `FC(F)(F)c1ccc(OC[C@@H]2CCCN2)nc1-c1n[nH]c2ncccc12` [Compound 51], the Ki in test [1] and in test [2] was greater than 0.7 µM in each case.

For `NC1CCCC(Nc2cccc(-c3n[nH]c4ncccc34)n2)C1` (stereo not drawn) [Compound 61], the Ki in test [1] and in test [2] was less than 0.05 µM throughout.

For the compound `CN(CC#N)c1ccc(C(F)(F)F)c(-c2n[nH]c3ncccc23)n1` [Compound 44], the Ki in test [1] and in test [2] was less than 0.5 µM each time.

Turning to `FC(F)(F)c1ccc(NCC2CCCCN2)nc1-c1n[nH]c2ncccc12` (stereo not drawn) [Compound 32], the Ki in test [1] and in test [2] was greater than 0.7 µM each time.

Turning to `CC(C)CC(O)CNc1ccc(C(F)(F)F)c(-c2n[nH]c3ncccc23)n1` (stereo not drawn) [Compound 15], the inhibition constant Ki in test [1] and in test [2] was greater than 0.7 µM each time.

Take `NCCCNc1cccc(-c2n[nH]c3ncccc23)n1` [Compound 2]: the Ki in test [1] and in test [2] was less than 0.5 µM throughout.

With `FC(F)(F)c1ccc(NCC2CCNCC2)nc1-c1n[nH]c2ncccc12` [Compound 27], the Ki in test [1] and in test [2] was greater than 0.7 µM throughout.

As for `FC(F)(F)c1ccc(NCCN2CCCC2)nc1-c1n[nH]c2ncccc12` [Compound 60], the Ki in test [1] and in test [2] was greater than 0.7 µM in each case.

Turning to `CN(CCO)c1ccc(C(F)(F)F)c(-c2n[nH]c3ncccc23)n1` [Compound 58], the Ki in test [1] and in test [2] was greater than 0.7 µM throughout.

Regarding `NC1CCC(CNc2cccc(-c3n[nH]c4ncccc34)n2)CC1` (stereo not drawn) [Compound 13, N-((4-aminocyclohexyl)methyl)-6-(1H-pyrazolo[3,4-b]pyridin-3-yl)pyridin-2-amine], the Ki in test [1] and in test [2] was less than 0.5 µM in each case.

As to `CC(C)(N)CNc1cccc(-c2n[nH]c3ncccc23)n1` [Compound 1, N1-(6-(1H-pyrazolo[3,4-b]pyridin-3-yl)pyridin-2-yl)-2-methylpropane-1,2-diamine], the Ki in test [1] and in test [2] was less than 0.05 µM in each case.

Take `CN(C)C(C)(C)COc1ccc(C(F)(F)F)c(-c2n[nH]c3ncccc23)n1` [Compound 52]: the Ki in test [1] and in test [2] was greater than 0.7 µM throughout.

`FC(F)(F)c1ccc(NC2CN3CCC2CC3)nc1-c1n[nH]c2ncccc12` (stereo not drawn) [Compound 71]: the Ki in test [1] and in test [2] was greater than 0.7 µM throughout.

In the case of `CC(C)C[C@H](N)COc1ccc(C(F)(F)F)c(-c2n[nH]c3ncccc23)n1` [Compound 38], the Ki in test [1] and in test [2] was less than 0.5 µM throughout.

As for `OCCNc1cccc(-c2n[nH]c3ncccc23)n1` [Compound 8], the Ki in test [1] and in test [2] was greater than 0.7 µM throughout.

Regarding `Nc1cc(Cl)cc(Nc2ccc(C(F)(F)F)c(-c3n[nH]c4ncccc34)n2)c1` [Compound 70], the inhibition constant Ki in test [1] and in test [2] was less than 0.5 µM each time.

Turning to `OC1CCCCC1Nc1ccc(C(F)(F)F)c(-c2n[nH]c3ncccc23)n1` (stereo not drawn) [Compound 84], the Ki in test [1] and in test [2] was greater than 0.7 µM throughout.

Regarding `O[C@H](CNc1cccc(-c2n[nH]c3ncccc23)n1)c1ccccc1` [Compound 7], the Ki in test [1] and in test [2] was greater than 0.7 µM throughout.

`NCC1CCC(CNc2cccc(-c3n[nH]c4ncccc34)n2)CC1` (stereo not drawn) [Compound 4]: the Ki in test [1] and in test [2] was less than 0.5 µM each time.

Take `Fc1ccc(NC2CNC2)nc1-c1n[nH]c2ncccc12` [Compound 64]: the Ki in test [1] and in test [2] was greater than 0.7 µM throughout.

Regarding `CC(C)CC(O)CNc1cccc(-c2n[nH]c3ncccc23)n1` (stereo not drawn) [Compound 21], the Ki in test [1] and in test [2] was greater than 0.7 µM in each case.

As for `CC(CO)Nc1ccc(C(F)(F)F)c(-c2n[nH]c3ncccc23)n1` (stereo not drawn) [Compound 73], the Ki in test [1] and in test [2] was greater than 0.7 µM in each case.

As for `OCc1cccc(Nc2ccc(C(F)(F)F)c(-c3n[nH]c4ncccc34)n2)c1` [Compound 78], the Ki in test [1] and in test [2] was greater than 0.7 µM each time.

With `CC(N)(CO)COc1ccc(C(F)(F)F)c(-c2n[nH]c3ncccc23)n1` (stereo not drawn) [Compound 57], the Ki in test [1] and in test [2] was greater than 0.7 µM in each case.

For the compound `N#CCCNc1ccc(C(F)(F)F)c(-c2n[nH]c3ncccc23)n1` [Compound 42], the Ki in test [1] and in test [2] was greater than 0.7 µM each time.

Consider `NC(=O)c1ccsc1Nc1ccc(C(F)(F)F)c(-c2n[nH]c3ncccc23)n1` [Compound 50], for which the Ki in test [1] and in test [2] was greater than 0.7 µM in each case.

As to `c1cc(NC2CCNC2)nc(-c2n[nH]c3ncccc23)c1` (stereo not drawn) [Compound 6], the inhibition constant (Ki) in test [1] and in test [2] was less than 0.5 µM throughout.

Consider `CC(C)CC1(CNc2ccc(F)c(-c3n[nH]c4ncccc34)n2)CNC1` [Compound 68], for which the Ki in test [1] and in test [2] was less than 0.05 µM in each case.

In the case of `FC(F)(F)c1ccc(NCC2CCCN2)nc1-c1n[nH]c2ncccc12` (stereo not drawn) [Compound 28], the Ki in test [1] and in test [2] was greater than 0.7 µM each time.

Take `c1cc(NC2CCNCC2)nc(-c2n[nH]c3ncccc23)c1` [Compound 18]: the Ki in test [1] and in test [2] was less than 0.05 µM throughout.

As for `NCC1CCC(CNc2ccc(C(F)(F)F)c(-c3n[nH]c4ncccc34)n2)CC1` (stereo not drawn) [Compound 24], the Ki in test [1] and in test [2] was less than 0.5 µM each time.

As to `CC(C)C[C@@H](CN)Nc1cccc(-c2n[nH]c3ncccc23)n1` [Compound 17], the Ki in test [1] and in test [2] was greater than 0.7 µM throughout.

Take `NC(CNc1ccc(C(F)(F)F)c(-c2n[nH]c3ncccc23)n1)c1ccccc1` (stereo not drawn) [Compound 36]: the Ki in test [1] and in test [2] was less than 0.05 µM each time.

Turning to `CCC(CN)(CNc1ccc(C(F)(F)F)c(-c2n[nH]c3ncccc23)n1)c1ccccc1` (stereo not drawn) [Compound 65], the Ki in test [1] and in test [2] was less than 0.5 µM in each case.

On to `CN(CCC#N)c1ccc(C(F)(F)F)c(-c2n[nH]c3ncccc23)n1` [Compound 75], for which the Ki in test [1] and in test [2] was less than 0.5 µM throughout.

In the case of `NCc1ccc(Nc2ccc(C(F)(F)F)c(-c3n[nH]c4ncccc34)n2)cc1` [Compound 48], the Ki in test [1] and in test [2] was greater than 0.7 µM throughout.

For the compound `c1cc(NCC2CCCN2)nc(-c2n[nH]c3ncccc23)c1` (stereo not drawn) [Compound 20], the inhibition constant (Ki) in test [1] and in test [2] was greater than 0.7 µM each time.

With `c1cc(NCC2CCNC2)nc(-c2n[nH]c3ncccc23)c1` (stereo not drawn) [Compound 22], the Ki in test [1] and in test [2] was less than 0.5 µM in each case.

Take `OCCN(CCO)c1ccc(C(F)(F)F)c(-c2n[nH]c3ncccc23)n1` [Compound 76]: the Ki in test [1] and in test [2] was greater than 0.7 µM each time.

As to `N[C@H](CNc1cccc(-c2n[nH]c3ncccc23)n1)c1ccccc1` [Compound 11], the inhibitory constant (Ki) in test [1] and in test [2] was less than 0.5 µM in each case.

Regarding `CCN1CCCC(Oc2ccc(C(F)(F)F)c(-c3n[nH]c4ncccc34)n2)C1` (stereo not drawn) [Compound 69], the inhibition constant Ki in test [1] and in test [2] was greater than 0.7 µM throughout.

As for `FC(F)(F)c1ccc(NCC2CCCNC2)nc1-c1n[nH]c2ncccc12` (stereo not drawn) [Compound 31], the inhibition constant (Ki) in test [1] and in test [2] was greater than 0.7 µM in each case.

Consider `CC(C)CC1(CNc2ccc(C(F)(F)F)c(-c3n[nH]c4ncccc34)n2)CNC1` [Compound 67], for which the Ki in test [1] and in test [2] was less than 0.05 µM in each case.

Turning to `N#CCNc1ccc(C(F)(F)F)c(-c2n[nH]c3ncccc23)n1` [Compound 62], the Ki in test [1] and in test [2] was greater than 0.7 µM each time.

For `c1cc(NCC2CCCCN2)nc(-c2n[nH]c3ncccc23)c1` (stereo not drawn) [Compound 23], the Ki in test [1] and in test [2] was less than 2.8 µM in each case.

On to `CC(C)(C)[C@H](N)COc1ccc(C(F)(F)F)c(-c2n[nH]c3ncccc23)n1` [Compound 72], for which the Ki in test [1] and in test [2] was greater than 0.7 µM in each case.

`NC(=O)c1ccccc1Oc1ccc(C(F)(F)F)c(-c2n[nH]c3ncccc23)n1` [Compound 41]: the Ki in test [1] and in test [2] was greater than 0.7 µM each time.

As to `NC1CCCCC1Nc1cccc(-c2n[nH]c3ncccc23)n1` (stereo not drawn) [Compound 3], the inhibition constant Ki in test [1] and in test [2] was less than 0.5 µM throughout.

For the compound `CCC(CO)Nc1ccc(C(F)(F)F)c(-c2n[nH]c3ncccc23)n1` (stereo not drawn) [Compound 80], the Ki in test [1] and in test [2] was greater than 0.7 µM throughout.

Regarding `c1cc(NCC2CCCNC2)nc(-c2n[nH]c3ncccc23)c1` (stereo not drawn) [Compound 12], the Ki in test [1] and in test [2] was less than 0.5 µM throughout.
